Entries after “also recorded” stand apart in the source; their conditions may differ. Bridges are numbered along the chain shown (N, C = ends). Where no end group is shown, it is not given here.
Legend:
[1] = system: classical pathway mediated C9 deposition; experiment: Inhibition of classical pathway mediated C9 deposition (ELISA); type: biochemical, human; details: CP C9 deposition; 1% serum; n=3; ND* = Not detected
Experimental: For the C3 and C9 ELISAs, microtiter plates (MaxiSorp; Nunc) were incubated overnight at 4°C with 50 µL of a solution of in 75 mM sodium carbonate (pH 9.6) containing either 2.5 µg/mL aggregated human IgG (Sigma-Aldrich, Gillingham, UK) for CP or 20 µg/mL zymosan (Sigma-Aldrich, Gillingham, UK) for AP. As a negative control, wells were coated with 1% (w/v) bovine serum albumin (BSA)/PBS. Microtiter plates were washed four times with 250 µL of wash buffer (50 mM Tris-HCl), 150 mM NaCl and 0.1% Tween 20 (pH 8) between each step of the procedure. Wells were blocked using 250 µL of 1% (w/v) BSA/PBS for 2 hr at room temperature. […] Complement activation was assessed through detection of deposited complement activation factors using specific antibodies against C3b (rat anti-human C3d HM2198, Hycult, Uden, The Netherlands) and C9 (goat anti-human C9, A226, Complement Technologies Tyler, TX) at a 1:1000 dilution. Bound primary antibodies were detected with […]-conjugated goat anti-rat (ab97057, Abcam, Cambridge, UK) or rabbit anti-goat (P0449, Agilent Dako, Santa Clara, CA) secondary antibodies at a 1:1000 dilution. Bound HRP-conjugated antibodies were detected using TMB One solution (Eco-TEK – manufactured by Bio-TEK, Winooski, VT) with absorbance measured at 450 nm. […]

[2] = system: rabbit erythrocytes (alternative pathway haemolysis); experiment: Inhibition of alternative pathway haemolysis; type: cell-based, rabbit erythrocytes; normal human serum; details: 4.5% serum
Experimental: GVB^++ or Mg EGTA buffers, which had been supplemented with 2.5% glucose (w/v), were used for the CP and AP assays, respectively. For the AP, 150 µL of rabbit erythrocytes (TCS Biosciences, Botolph Claydon, UK) were washed twice, by addition of 1 mL of buffer and centrifugation at 800 ×g for 1 min, and finally resuspended in 500 µL of buffer. For the CP, 150 µL sheep erythrocytes (TCS Biosciences, Botolph Claydon, UK) were washed twice with 1 mL of buffer and sensitised with a 1/1000 dilution of rabbit anti-sheep red blood cell stroma antibody (S1389, Sigma Aldrich, Gillingham, UK). After a 30°C/30 min incubation, with shaking, the cells were rewashed and resuspended with 500 µL of buffer. Serial dilutions of peptide were prepared in the respective buffers and normal human serum was added at 1% for the CP and 4.5% for the AP (corresponding to CH50 of the serum). Also, 90 µL of peptide–serum mixtures were plated into a V-bottom 96-well microtiter plate (Corning) and 10 µL of erythrocytes were added. Plates were incubated for 30 min at 37°C, with shaking. Finally, 50 µL of buffer was added, the plates centrifuged at 800 ×g, and 80 µL of supernatant was transferred to an ELISA plate (Nunc) and absorbance measured at 405 nm.
Table 1.8. Inhibition of alternative pathway haemolysis.

human C5 = target: T1, human C5 (Homo sapiens, UniProt P01031); experiment: SPR cross blocking; type: binding; details: HBS-EP, qualitative
T1 construct: tissue TCS Biosciences (serum); host or cells: human serum
T1 sequence (P01031 678-1676 limits assumed): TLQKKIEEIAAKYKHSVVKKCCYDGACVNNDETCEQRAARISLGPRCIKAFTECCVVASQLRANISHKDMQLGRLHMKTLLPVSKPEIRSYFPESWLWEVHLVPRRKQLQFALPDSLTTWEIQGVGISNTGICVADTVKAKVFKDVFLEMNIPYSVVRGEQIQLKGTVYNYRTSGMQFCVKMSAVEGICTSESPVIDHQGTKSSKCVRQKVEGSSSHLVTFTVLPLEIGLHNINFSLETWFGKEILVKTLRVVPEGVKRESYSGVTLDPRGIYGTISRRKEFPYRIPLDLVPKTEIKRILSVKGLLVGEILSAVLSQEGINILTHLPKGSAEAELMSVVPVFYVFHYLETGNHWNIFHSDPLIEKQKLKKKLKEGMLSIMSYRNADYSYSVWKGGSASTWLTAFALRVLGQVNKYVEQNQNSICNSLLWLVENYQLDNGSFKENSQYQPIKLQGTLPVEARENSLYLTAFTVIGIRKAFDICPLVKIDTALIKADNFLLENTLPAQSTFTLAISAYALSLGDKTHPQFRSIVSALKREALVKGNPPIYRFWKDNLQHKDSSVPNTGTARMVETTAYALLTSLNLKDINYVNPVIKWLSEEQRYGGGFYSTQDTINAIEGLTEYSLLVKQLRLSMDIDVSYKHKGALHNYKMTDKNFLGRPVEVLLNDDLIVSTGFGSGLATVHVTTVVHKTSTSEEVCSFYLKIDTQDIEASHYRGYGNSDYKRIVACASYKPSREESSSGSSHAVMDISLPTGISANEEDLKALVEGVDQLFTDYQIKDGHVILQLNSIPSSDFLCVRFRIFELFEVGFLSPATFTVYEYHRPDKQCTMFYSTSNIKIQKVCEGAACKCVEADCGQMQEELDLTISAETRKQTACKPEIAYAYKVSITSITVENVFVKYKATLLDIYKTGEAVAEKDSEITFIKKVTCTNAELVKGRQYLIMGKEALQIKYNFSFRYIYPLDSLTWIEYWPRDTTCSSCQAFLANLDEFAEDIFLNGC
T1 sequence (P01031 19-673 limits assumed): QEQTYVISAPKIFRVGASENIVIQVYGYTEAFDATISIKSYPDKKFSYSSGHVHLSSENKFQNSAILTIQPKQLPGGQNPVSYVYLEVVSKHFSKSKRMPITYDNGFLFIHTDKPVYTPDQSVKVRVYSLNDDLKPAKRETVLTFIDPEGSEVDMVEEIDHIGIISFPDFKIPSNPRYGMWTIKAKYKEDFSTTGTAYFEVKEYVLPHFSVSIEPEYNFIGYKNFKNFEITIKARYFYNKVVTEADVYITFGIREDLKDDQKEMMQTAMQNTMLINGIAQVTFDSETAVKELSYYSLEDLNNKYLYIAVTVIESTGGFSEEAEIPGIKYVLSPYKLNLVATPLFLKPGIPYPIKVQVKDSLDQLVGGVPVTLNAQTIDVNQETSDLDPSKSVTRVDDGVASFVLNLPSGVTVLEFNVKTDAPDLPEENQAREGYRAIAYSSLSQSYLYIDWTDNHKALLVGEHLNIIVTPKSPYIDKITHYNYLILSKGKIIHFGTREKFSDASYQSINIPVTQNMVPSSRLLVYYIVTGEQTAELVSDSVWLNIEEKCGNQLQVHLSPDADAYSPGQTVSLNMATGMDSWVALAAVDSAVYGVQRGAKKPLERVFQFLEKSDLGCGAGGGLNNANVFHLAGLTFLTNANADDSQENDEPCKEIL
Experimental: To test for cross blocking, arising from overlapping epitopes, or cooperativity between knob domains, we performed a surface plasmon resonance (SPR) cross blocking experiment, where, using a Biacore 8K, we saturated a C5-coated sensor chip with two 20 µM injections of knob domain peptide before injecting a different peptide at 20 µM to assess its capacity to bind. This provides a qualitative measure of cross blocking, whereby an increase in response units (RUs) indicates ternary complex formation, stoichiometries, or kinetics cannot be reliably derived with concurrent dissociation of both peptides (Figure 2).
On a Biacore 8K (GE Healthcare, Amersham, UK), human C5 was amine coupled to a CM5 chip using the same protocol as for C5b. A final immobilisation level of approximately 1000–2000 RUs was obtained. For cross blocking, the surface was saturated with two sequential injections of a 20 µM knob domain solution in HBS-EP buffer (GE Healthcare, Amersham, UK) using a flow rate of 30 µL/min and contact time of 300 s. This was immediately followed with an injection of a second knob domain peptide, again at 20 µM in HBS-EP, with a flow rate of 30 µL/min and a contact time of 270 s, and the dissociation phase was measured for 600 s. […]

Q: How did the “Average Emax” value [1] turn out when “SVCPDGFDWGYGCAAGSSRFCTRHDWCCYDERADSHTYGFCTGNRVENLYFQ (disulfide 3-28, 13-21, 27-41) [K8]” was run?
A: 63.4%

Q: What about the “inhibition of AP haemolysis (in words)” value [2] of the same sequence?
A: did not show efficacy in the AP haemolysis assay, below 10 µM; also recorded: did not show activity in the AP assay below 10 µM

Q: What about the “binding to C5 saturated with K57” value (human C5; two 20 µM injections of K57, then 20 µM second peptide) of the same sequence?
A: can bind, albeit at a lower level; also recorded: could still partially bind

Q: What about the “binding to C5 saturated with K92” value (human C5; two 20 µM injections of K92, then 20 µM second peptide) of the same sequence?
A: can bind, albeit at a lower level; also recorded: still able to bind, albeit to a lesser degree
